According to patent publication US10722575B2, “Use of 1,3-diphenylprop-2-en-1-one derivatives for treating liver disorders” (GENFIT, priority 2009, dated 2020):

What was measured:
[1] = test system: patients suffering from atherogenic dyslipidaemia and abdominal obesity; experiment: First pilot double-blind placebo-controlled randomized study, Cpd 29 80 mg/day, 28 days; type: in vivo, human; details: 80 mg/day oral
Method: 1-[4-methylthiophenyl]-3-[3,5-dimethyl-4-carboxydimethylmethyloxyphenyl]prop-2-en-1-one (Cpd 29 of WO 2004/005233) has been formulated as hard shell capsules containing 5, 10 or 20 mg of the compound. The compound (80 mg) was administered orally once daily for 28 days. The study has been performed in two parallel groups in double-blind conditions: placebo or Cpd 29 of WO 2004/005233.
The tolerability and safety of once-a-day administrations, as well as the efficacy in improving plasma lipids and glucose homeostasis compared with placebo, were evaluated in two pilot trials using relevant biochemical parameters. The data were used to calculate the percentage of change due to the compound when compared to the placebo after 28 days of treatment.
A first pilot, double-blind, placebo controlled, randomized study has been performed in patients suffering from atherogenic dyslipidaemia and abdominal obesity for assessing the tolerability and safety of once-a-day administrations of oral doses of Cpd 29 of WO 2004/005233 (at the dose of 80 mg/day), as well as the efficacy on plasma triglycerides and HDL-cholesterol (primary objectives).

[2] = test system: hApoE2 KI/PPARalpha KO mice; experiment: hApoE2 KI/PPARalpha KO mice on Western diet, 2 weeks, histological scores of liver steatosis and intralobular inflammation; type: in vivo; details: 30 mg/kg/day
Method: Animals were fed a Western diet (20% saturated fat and 0.2% cholesterol, Harlan Teklad TD88137) during 2 weeks in the first study, that involved the daily administration of Cpd 29 (at 30 mg/kg/day by oral gavage), and during 6 weeks in the second study, that involved the daily administration of Compound 1 of WO 2007147879 (Cpd1, at 30 mg/kg/day by oral gavage). Control animals were treated with vehicle only (Carboxymethlycellulose 1%+Tween-80 0.1%). Animals had access to food and water ad libitum.
At the end of the studies, the animals were weighed and sacrificed under anesthesia. Blood was collected from the retro-orbital sinus; plasma was obtained by centrifugation (4 000 rpm, at 4° C. for 15 min) and subsequently frozen and stored at −20° C. Tissues and livers were isolated and snap-frozen in liquid nitrogen and stored at −80° C. for subsequent analysis (gene expression and biochemistry) or fixed in 4% paraformaldehyde for histology.
Formalin-fixed liver tissue was processed, and 5-μm-thick paraffin sections were stained with Hematoxylin and Eosin. The histological analysis of stained liver sections was carried out in blind conditions to quantify liver steatosis and liver intralobular inflammation. Liver steatosis was scored from 0 to 3 as follows: 0 (very slightly affected), 1 (slightly affected), 2 (moderately affected), 3 (highly affected). Liver intralobular inflammation was also scored depending on the number of inflammatory foci counted by field of observation as follows: 0 (<1 focus/field), 1 (1 to 2 foci/field), 2 (2 to 4 foci/field) 3 (more than 4 foci/field).
Exemplary compounds of the General Formula (I) were tested in vivo in a high fat diet mice model. hApoE2 KI and hApoE2 KI/PPARalpha KO (“humanized” ApoE2 knock-in mice deficient for the mPPARalpha gene) were fed a Western diet and daily treated with the Cpd 29 at 30 mg/kg/day during 2 weeks. At the end of the protocol, liver steatosis and intra-lobular inflammation were evaluated in the control and treated mice by means of histological analysis and specific scores.

[3] = relative to the placebo group, p<0.01
[4] = hApoE2 KI/PPARalpha KO mice, Western diet

Substance: 1-[4-methylthiophenyl]-3-[3,5-dimethyl-4-carboxydimethylmethyloxyphenyl]prop-2-en-1-one [Cpd 29]
- effect on Homocystein (cardiovascular risk factor) [1]: lack of effect
- reduction of Gamma Glutamyl transpeptidase level ([1]; p<0.001): 23%
- liver acute phase inflammation marker fibrinogen ([1]; p<0.01): reduction
- liver acute phase inflammation marker haptoglobin ([1]; p<0.01): reduction
- reduction of Alanine aminotransferase level ([1]; p<0.01): 13%
- increase in good cholesterol (HDL-C) level [1, 3]: 9%
- reduction of plasma triglycerides [1, 3]: 21%
- development of liver inflammation induced by the diet [2, 4]: inhibits
- development of liver steatosis induced by the diet [2, 4]: inhibits
- Liver Inflammation (score) 0 ([2]; share of group with score 0 (<1 focus/field), hApoE2 KI/PPARalpha KO): 67%
- Liver Steatosis (score) 0 ([2]; share of group with score 0 (very slightly affected), hApoE2 KI/PPARalpha KO): 0%
- Liver Inflammation (score) 1 ([2]; share of group with score 1 (1 to 2 foci/field), hApoE2 KI/PPARalpha KO): 17%
- Liver Steatosis (score) 1 ([2]; share of group with score 1 (slightly affected), hApoE2 KI/PPARalpha KO): 33%
- Liver Inflammation (score) 2 ([2]; share of group with score 2 (2 to 4 foci/field), hApoE2 KI/PPARalpha KO): 17%
- Liver Steatosis (score) 2 ([2]; share of group with score 2 (moderately affected), hApoE2 KI/PPARalpha KO): 50%
- Liver Steatosis (score) 3 ([2]; share of group with score 3 (highly affected), hApoE2 KI/PPARalpha KO): 17%
- Liver Inflammation (score) 3 ([2]; share of group with score 3 (more than 4 foci/field), hApoE2 KI/PPARalpha KO): 0%
